The values that follow come from US20040110954A1, “Methods of synthesizing phenol-contining compounds” (priority 2003, published 2004).

Read-outs that look alike come from different tables or passages of the source.

Broadly, the melting point is the temperature, or range, at which the solid turns liquid.

Data set [1] is described as follows: Glucuronidation in human hepatic microsomes with UDPGA. The conditions noted are these: human hepatic microsomes ca. 0.5 mg/mL protein, 0.5 uM compound, UDPGA 4 mM, pH 7.4, 37° C.
Experimental: (§1) The standard procedure for these experiments is as follows: incubations were performed in a final volume of 1.0 mL in a heated block at approximately 37° C. Each incubation contained approximately 0.5 mg/mL microsomal protein and 0.5 uM of the compound. The incubations were conducted with 50 mM potassium phosphate buffer (pH 7.4) and, following a 5 min preincubation at 37° C., were initiated by the addition of cofactor (UDPGA, 4 mM). Aliquots were removed every three minutes and were quenched with two volumes of ACN/EtOH/Acetic acid (80:20:1) containing an appropriate internal standard. Samples were store frozen (ca.−70° C.) until analysis for the quantitation of the parent compound by LC/MS methods. The rate of disappearance of each compound was determined from relative concentration versus time profiles fitted to appropriate exponential decay equations. CLint (mL/min/g liver) was calculated using standard scaling factors.
Data set [2] can be described thus: Glucuronidation in rat hepatic microsomes with UDPGA. The note with it: rat hepatic microsomes ca. 0.5 mg/mL protein, 0.5 uM compound, UDPGA 4 mM, pH 7.4, 37° C.
Experimental: as §1
For data set [3] the following is noted: microsomes, pH 7.4.
Experimental: as §1
The conditions of data set [4]: microsomes, pH 7.4. The source holds these as a separate data set.
Experimental: as §1
A short description of data set [5]: In vivo half-life and clearance in the rat. The note with it: male Sprague-Dawley rats; crossover: 60 min iv infusion, then oral gavage; plasma, noncompartmental analysis. The method, then:
Method for Determining the in vivo Half-life (T½) of Compounds in Table 3. The study was conducted using a crossover design on two separate study days. Three male Sprague-Dawley rats received surgically implanted catheters in the vena cava (via the femoral vein), and in the femoral artery at least three days prior to the study. […] On study day two, the animals (fasted) received the compound by oral gavage (16.0 mL/kg). […] Blood samples were collected prior to dosing and at various times following administration of compounds. Plasma concentrations of the compounds were quantified by an HPLC/MS/MS method (LLQ=10 ng/mL). Noncompartmental analysis was used for pharmacokinetic analysis of plasma concentration versus time data.

With `CCCc1c(C#N)ccc(NC(=O)Nc2ccccc2Br)c1O` [Table 1 Entry 10, 1-(2-Bromo-phenyl)-3-(4-cyano-2-hydroxy-3-propyl-phenyl)-urea], the melting point fell in the range of 174 to 175 °C. The “CLint (mL/min/g liver) human” value in data set [1] (Table 1 diphenylureas) stood at 11.3 mL/min/g liver.

As to `CS(=O)(=O)c1c(Cl)ccc(NC(=O)Nc2cccc(Cl)c2Cl)c1O` [Table 1 Entry 8, 1-(4Chloro-2-hydroxy-3-methanesulfonyl-phenyl)-3-(2,3-dichloro-phenyl)-urea], the “Clint (mL/min/g liver) rat” value in data set [2] (Table 1 diphenylureas) was less than 0.6 mL/min/g liver. Moreover, the “CLint (mL/min/g liver) human” value in data set [1] (Table 1 diphenylureas) was less than 0.6 mL/min/g liver.

For `COCCNS(=O)(=O)c1c(Cl)ccc(NC(=O)Nc2cccc(Cl)c2Cl)c1O` [Table 1 Entry 7, N-[4-chloro-2-hydroxy-3-[N″-(2-methoxyethyl)sufonyl]phenyl]-N′-(2,3-dichlorophenyl) urea], the “Clint (mL/min/g liver) rat” value in data set [2] (Table 1 diphenylureas) is on record as less than 0.6 mL/min/g liver. The “CLint (mL/min/g liver) human” value in data set [1] (Table 1 diphenylureas) is on record as less than 0.6 mL/min/g liver.

Consider `NC(=O)c1c(Cl)ccc(NC(=O)Nc2ccccc2Br)c1O` [Table 1 Entry 17, 3-[3-(2-Bromo-phenyl)-ureido]-6-chloro-2-hydroxy-benzamide], for which the “Clint (mL/min/g liver) rat” value in data set [2] (Table 1 diphenylureas) is listed as 5.2 mL/min/g liver. Besides, the “CLint (mL/min/g liver) human” value in data set [1] (Table 1 diphenylureas) is 15.4 mL/min/g liver.

For `O=C(Nc1ccc(Cl)c(C(=O)N2CCOCC2)c1O)Nc1cccc(Cl)c1Cl` [Table 1 Entry 19, 1-[4-Chloro-2-hydroxy-3-(1-morpholin-4-yl-methanoyl)-phenyl]-3-(2,3-dichloro-phenyl)-urea], the “Clint (mL/min/g liver) rat” value in data set [2] (Table 1 diphenylureas) was determined as 24 mL/min/g liver. Further, in data set [1] (Table 1 diphenylureas), the “CLint (mL/min/g liver) human” value stood at 21 mL/min/g liver.

For `CCC(C)c1c(C#N)ccc(NC(=O)Nc2ccccc2Br)c1O` (stereo not shown) [Table 1 Entry 11, 1-(2-Bromo-phenyl)-3-[4-cyano-2-hydroxy-3-(1-methyl-propyl)-phenyl]-urea], the “CLint (mL/min/g liver) human” value in data set [1] (Table 1 diphenylureas) is given as 2.8 mL/min/g liver.

For the compound `N#Cc1ccc(NC(=O)Nc2ccccc2Br)c(O)c1Br` [Table 1 Entry 14, 1-(3-Bromo-4-cyano-2-hydroxy-phenyl)-3-(2-bromo-phenyl)-urea], the “CLint (mL/min/g liver) human” value in data set [3] is listed as 3.7 mL/min/g liver. For the same compound, the “Clint (mL/min/g liver) rat” value in data set [4] stood at 27 mL/min/g liver.

For the compound `CNS(=O)(=O)c1c(Cl)ccc(NC(=O)Nc2cccc(Cl)c2Cl)c1O` [Table 1 Entry 5, N-[4-chloro-2-hydroxy-3-(N″-methylaminosulfonyl)phenyl]-N′-(2,3-dichlorophenyl) urea], the figures for the “Clint (mL/min/g liver) rat” value in data set [2] (Table 1 diphenylureas) and in data set [2] (Table 2 squaramide series) were less than 0.6 mL/min/g liver and 6.7 mL/min/g liver, respectively. The entries for the “CLint (mL/min/g liver) human” value in data set [1] (Table 1 diphenylureas) and in data set [1] (Table 2 squaramide series) were less than 0.6 mL/min/g liver and greater than 50 mL/min/g liver, respectively. The “Cl” value in data set [5] came to 26 mL/min/kg. Also, the “T½” value in data set [5] turned out to be 5.4 min.

In the case of `CCCC(C)c1c(C#N)ccc(NC(=O)Nc2ccccc2Br)c1O` (stereo not shown) [Table 1 Entry 12, 1-(2-Bromo-phenyl)-3-[4-cyano-2-hydroxy-3-(1-methyl-butyl)-phenyl]-urea], the “CLint (mL/min/g liver) human” value in data set [1] (Table 1 diphenylureas) is 2.4 mL/min/g liver.

Turning to `O=C(Nc1ccc(Cl)c(C(=O)Nc2ccccc2)c1O)Nc1cccc(Cl)c1Cl` [Table 1 Entry 18, 6-Chloro-3-[3-(2,3-dichloro-phenyl)-ureido]-2-hydroxy-N-phenyl-benzamide], the melting point lay within 244 to 245 °C. In data set [2] (Table 1 diphenylureas), the “Clint (mL/min/g liver) rat” value turned out to be 9.3 mL/min/g liver. Besides, the “CLint (mL/min/g liver) human” value in data set [1] (Table 1 diphenylureas) is reported as 11 mL/min/g liver.

As for `CS(=O)(=O)c1c(C#N)ccc(NC(=O)Nc2ccccc2Br)c1O` [Table 1 Entry 9, 1-(2-Bromo-phenyl)-3-(4-cyano-2-hydroxy-3-methanesulfonyl-phenyl)-urea], in data set [2] (Table 1 diphenylureas), the “Clint (mL/min/g liver) rat” value is on record as less than 0.6 mL/min/g liver. Moreover, in data set [1] (Table 1 diphenylureas), the “CLint (mL/min/g liver) human” value is on record as less than 0.6 mL/min/g liver.

In the case of `CNS(=O)(=O)c1c(Cl)ccc(NC(=O)Nc2ccccc2Br)c1O` [Table 1 Entry 6, N′-(2-bromophenyl)-N′-[4-chloro-2-hydroxy-3-(N″-methylaminosulfonyl)phenyl] urea], the “CLint (mL/min/g liver) human” value in data set [3] is on record as less than 0.6 mL/min/g liver. Besides, in data set [4], the “Clint (mL/min/g liver) rat” value is less than 0.6 mL/min/g liver.

As to `C[S+]([O-])c1c(Cl)ccc(NC(=O)Nc2cccc(Cl)c2Cl)c1O` (stereo not shown) [Table 1 Entry 15, 1-(4-Chloro-2-hydroxy-3-methanesulfinyl-phenyl)-3-(2,3-dichloro-phenyl)-urea], in data set [2] (Table 1 diphenylureas), the “Clint (mL/min/g liver) rat” value came out at 2.6 mL/min/g liver. For the same compound, the “CLint (mL/min/g liver) human” value in data set [1] (Table 1 diphenylureas) came to 4.1 mL/min/g liver.

As to `CN(C)S(=O)(=O)c1c(Cl)ccc(NC(=O)Nc2cccc(Cl)c2Cl)c1O` [Table 1 Entry 3, N-[4-Chloro-3-(N″,N″-dimethylaminosulfonyl)-2-hydroxyphenyl]-N′-(2,3-dichlorophenyl) urea], the “Clint (mL/min/g liver) rat” value in data set [2] (Table 1 diphenylureas) is recorded as less than 0.6 mL/min/g liver; in data set [2] (Table 2 squaramide series), 12 mL/min/g liver. Also, the “CLint (mL/min/g liver) human” value in data set [1] (Table 1 diphenylureas) is on record as less than 0.6 mL/min/g liver; in data set [1] (Table 2 squaramide series) it was 16 mL/min/g liver. Also, the “Cl” value in data set [5] came to 65 mL/min/kg. In addition, the “T½” value in data set [5] was 11.4 min.

In the case of “N-(4-chloro-2-hydroxy-3-aminosulfonylphenyl)-N′-(2,3-dichlorophenyl) urea sodium salt [Example 1]”, the “Clint (mL/min/g liver) rat” value in data set [2] (Table 1 diphenylureas) and in data set [2] (Table 2 squaramide series) was less than 0.6 mL/min/g liver in each case. In addition, the “CLint (mL/min/g liver) human” value in data set [1] (Table 1 diphenylureas) and in data set [1] (Table 2 squaramide series) was less than 0.6 mL/min/g liver each time. Also, the “Cl” value in data set [5] worked out at 4.6 mL/min/kg. Further, the “T½” value in data set [5] is 636 min.

In the case of `NS(=O)(=O)Cc1c(Cl)ccc(NC(=O)Nc2cccc(Cl)c2Cl)c1O` [Table 1 Entry 16, {6-Chloro-3-[3-(2,3-dichloro-phenyl)-ureido]-2-hydroxy-phenyl}-methanesulfonamide], in data set [2] (Table 1 diphenylureas), the “Clint (mL/min/g liver) rat” value worked out at 1.3 mL/min/g liver. Besides, the “CLint (mL/min/g liver) human” value in data set [1] (Table 1 diphenylureas) is on record as 11 mL/min/g liver.

As for `CC(C)Cc1c(C#N)ccc(NC(=O)Nc2ccccc2Br)c1O` [Table 1 Entry 13, 1-(2-Bromo-phenyl)-3-(4-cyano-2-hydroxy-3-isobutyl-phenyl)-urea], the “CLint (mL/min/g liver) human” value in data set [1] (Table 1 diphenylureas) is 7.6 mL/min/g liver.

As to `CN(C)S(=O)(=O)c1c(Cl)ccc(NC(=O)Nc2ccccc2Br)c1O` [Table 1 Entry 4, N-(2-Bromophenyl)-N′[4-chloro-3-(N″,N″-dimethylaminosulfonyl)-2-hydroxyphenyl] urea], the figures for the “Clint (mL/min/g liver) rat” value in data set [2] (Table 1 diphenylureas) and in data set [2] (Table 2 squaramide series) were less than 0.6 mL/min/g liver and 5.1 mL/min/g liver, respectively. The “CLint (mL/min/g liver) human” value in data set [1] (Table 1 diphenylureas) is less than 0.6 mL/min/g liver; in data set [1] (Table 2 squaramide series), 28 mL/min/g liver. The “Cl” value in data set [5] is listed as 72 mL/min/kg.
